One assay relates to MDA-MB-468 cells. Nature of the assay: Cell viability assay (CellTiter-Glo), MDA-MB-468. The assay is classed as cell-based. The note with it: Homo sapiens; MDA-MB-468 breast cancer, 72 h. Here is the method: MDA-MB-468 cells (5 × 10^3) were seeded into 96-well plates and incubated overnight in 50 μL of culture medium. Next, 50 µL of each compound diluted in culture medium was added to the wells. After 72 h of incubation, viability was determined using the CellTiter-Glo Luminescent Cell Viability Assay (Promega) according to the manufacturer’s instructions. The GI50 values were calculated using GraphPad Prism 5 software with a sigmoid dose-response curve.

In another assay the test system is COLO205 cells. Nature of the assay: Cell viability assay, COLO205. The assay is classed as cell-based. The following applies: Homo sapiens, COLO 205; COLO205 colorectal cancer.
Another assay deals with COLO320DM cells. Kind of assay: Cell viability assay, COLO320DM. It is filed as cell-based. The note with it: Homo sapiens, COLO 320DM; COLO320DM colorectal cancer.
Assay [1] has as its system S6K pre-mRNA splicing in A549 cells. Nature of the assay: S6K pre-mRNA splicing alteration (quantitative RT-PCR), A549. The note with it: ratio of S6K exons 6–8 to exons 6–7 is 0.1. It is filed as cell-based, human. From the text:
(§1) To examine whether inhibition of a particular CLK and/or SRPK contributed to the alternative splicing of S6K pre-mRNA, we used an additional series of compounds with the same scaffold as Cpd-1, Cpd-2, and Cpd-3, but different selectivity. First, we examined the correlation between the enzymatic activity and the level of splicing alterations of S6K pre-mRNA for the individual compounds. We used the exon 7-skipped type of S6K variant to calibrate Rc0.1 values, i.e., the concentrations that induced 10% of the copy number of an alternative isoform compared with that of the canonical isoform. The inhibition of CLK1 and CLK2 activities was correlated with the splicing alteration activities (Rc0.1) (R^2 = 0.3353 and 0.4255, respectively). In contrast, there was no correlation between the activities of SRPKs and the Rc0.1 values (R^2 < 0.0468) (Fig. 3A). Next, we compared the levels of splicing alteration and growth inhibition of the compounds. […] Similar correlations between Rc0.1 and GI50 values were also obtained in seven different cancer cell lines after treatment with Cpd-2 or Cpd-3 (Table 2).
(§2) Total RNA was extracted using an RNeasy Miniprep Kit (Qiagen, Valencia, CA) in accordance with the manufacturer’s instructions. Reverse transcription was performed using a TaqMan Reverse Transcription Reagents Kit (Applied Biosystems, Carlsbad, CA). The PCR conditions were as follows: one cycle of 5 min at 95°C; 35 cycles of 30 s at 94°C, 30 s at 60°C, and 30 s at 72°C; and one cycle of 10 min at 72°C. The PCR products were separated in 2% agarose gels. Real-time PCR was performed using a TaqMan MGB probe (Applied Biosystems), and the amount of FAM fluorescence was measured as a function of the PCR cycle number (CT) using an ABI 7900 Real-time PCR System (Applied Biosystems). The expression level of each mRNA was normalized by that of GAPDH mRNA.

For assay [2], the system named is S6K pre-mRNA splicing in COLO205 cells. Nature of the assay: S6K pre-mRNA splicing alteration (quantitative RT-PCR), COLO205. It is filed as cell-based, human. The following applies: ratio of S6K exons 6–8 to exons 6–7 is 0.1.
Excerpt: as §1, §2

The subject of assay [3] is S6K pre-mRNA splicing in HCT-116 cells. Nature of the assay: S6K pre-mRNA splicing alteration (quantitative RT-PCR), HCT-116. The assay is classed as cell-based, human. The following applies: ratio of S6K exons 6–8 to exons 6–7 is 0.1.
Excerpt: as §1, §2

For assay [4], the system named is S6K pre-mRNA splicing in NCI-H23 cells. Nature of the assay: S6K pre-mRNA splicing alteration (quantitative RT-PCR), NCI-H23. The assay is classed as cell-based, human. The note with it: ratio of S6K exons 6–8 to exons 6–7 is 0.1.
Excerpt: as §1, §2

Assay [5] relates to S6K pre-mRNA splicing in SW620 cells. Kind of assay: S6K pre-mRNA splicing alteration (quantitative RT-PCR), SW620. The assay is classed as cell-based, human. The note with it: ratio of S6K exons 6–8 to exons 6–7 is 0.1.
Excerpt: as §1, §2

The test system of assay [6] is S6K pre-mRNA splicing in COLO320DM cells. Nature of the assay: S6K pre-mRNA splicing alteration (quantitative RT-PCR), COLO320DM. The assay is classed as cell-based, human. The following applies: ratio of S6K exons 6–8 to exons 6–7 is 0.1.
Excerpt: as §1, §2

Another assay deals with Aurora kinase A (Homo sapiens, UniProt O14965). Kind of assay: Kinase panel assay (Z'-LYTE, SelectScreen), Aurora kinase A. The assay is classed as biochemical. The note with it: 1 μM compound, 100 μM ATP; among kinases inhibited by more than 50%. The procedure: (§3) Kinase panel assays were performed using the FRET-based Z’- LYTE enzymatic kinase assay system (Life Technologies, Carlsbad, CA), which was carried out using the SelectScreen Kinase Profiling Service (Life Technologies). The standard reaction contained 2 μM peptide substrate, 100 μM ATP, 50 mM HEPES (pH 7.5), 0.01% Brij-35, 10 mM MgCl2, 1 mM EGTA, and each kinase. Cpd-1, Cpd-2, and Cpd-3 at two point concentration (100 and 1000 nM) with duplicate data points (n = 2) were assayed following the detailed procedures outlined in the SelectScreen. The full assay protocol and conditions can be obtained at www.lifetechnologies.com. Percent inhibition represents a ratio of phosphorylated product formed in the presence of the compound compared with phosphorylated product formed in reactions containing 1% DMSO. Inhibition data indicates the mean value of kinase inhibition from duplicate data.

The target in another assay is T1, CLK2 (Homo sapiens, UniProt P49760).
T1 construct: purchased Life Technologies
Kind of assay: Kinase panel assay (Z'-LYTE, SelectScreen), CLK2 among 28 kinases. It is filed as biochemical. The note with it: 100 and 1000 nM. Here is the method: as §3

In assay [7] the test system is nuclear speckles in MDA-MB-468 cells. Nature of the assay: Immunofluorescence of nuclear speckles (anti-SC35). It is filed as cell-based, human. The following applies: MDA-MB-468, 6 h, anti-SC35 antibody. Here is the method: MDA-MB-468 cells were fixed with 4% paraformaldehyde for 30 min at room temperature, washed with PBS, blocked with 5% BSA in PBS, incubated with an anti-SC35 antibody (Abcam, Cambridge, UK) for 1 h at room temperature, and incubated with a secondary antibody for 1 h. The cells were mounted and counterstained with DAPI (Vector Laboratories, Burlingame, CA) and detected using fluorescence microscopy.

For assay [8], the system named is phospho-SR proteins in MDA-MB-468 cells. Kind of assay: Immunoblot of phospho-SR proteins. The assay is classed as cell-based, human. The note with it: MDA-MB-468, 3 h, anti-pan-phospho-SR antibody. Here is the method:
Cells were lysed in radioimmunoprecipitation assay buffer containing 50 mM Tris-HCl (pH 7.6), 150 mM NaCl, 1% Triton X-100, and protease inhibitor cocktail tablets (Roche). After removal of the insoluble matter by centrifugation at 15,000 rpm for 15 min, the protein concentrations of the supernatants were determined using a BCA Protein Assay Kit (Pierce Biotechnology, Rockford, IL). The lysates were directly combined with one-quarter volume of 5× sample buffer [25 mmol/L Tris-HCl pH 6.8, 10% glycerol, 0.8% SDS, and 0.004% bromophenol blue] and boiled at 100°C for 5 min. The samples were subjected to 5–20% gradient SDS-polyacrylamide gel electrophoresis, and the separated proteins were electrophoretically transferred to polyvinylidene difluoride membranes using an I-blot System (Invitrogen). The membranes were incubated with primary antibodies and visualized using enhanced chemiluminescence reagents (GE Healthcare). The primary antibodies were as follows: anti-phospho-SR (1H4), anti-SR (Invitrogen), anti-EGFR, anti-EIF3D, anti-GAPDH (Santa Cruz Biotechnology, Santa Cruz, CA), anti-S6K and anti-PARP (Cell Signaling Technology, Danvers, MA).

T1 sequence (P49760 whole entry): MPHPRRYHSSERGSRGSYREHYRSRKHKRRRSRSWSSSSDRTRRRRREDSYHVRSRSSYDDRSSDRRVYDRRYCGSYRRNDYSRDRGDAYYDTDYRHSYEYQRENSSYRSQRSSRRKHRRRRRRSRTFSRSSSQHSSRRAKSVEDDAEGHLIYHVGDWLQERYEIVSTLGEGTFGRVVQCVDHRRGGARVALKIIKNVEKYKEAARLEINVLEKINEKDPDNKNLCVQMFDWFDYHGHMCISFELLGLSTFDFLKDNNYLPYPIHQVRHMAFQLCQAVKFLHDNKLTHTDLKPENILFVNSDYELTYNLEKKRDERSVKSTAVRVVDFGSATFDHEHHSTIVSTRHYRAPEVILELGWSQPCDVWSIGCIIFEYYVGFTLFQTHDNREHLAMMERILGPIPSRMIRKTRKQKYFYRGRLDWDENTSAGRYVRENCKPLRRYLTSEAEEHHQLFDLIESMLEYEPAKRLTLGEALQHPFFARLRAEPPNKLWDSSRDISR
Chain of Aurora kinase A (O14965 whole entry): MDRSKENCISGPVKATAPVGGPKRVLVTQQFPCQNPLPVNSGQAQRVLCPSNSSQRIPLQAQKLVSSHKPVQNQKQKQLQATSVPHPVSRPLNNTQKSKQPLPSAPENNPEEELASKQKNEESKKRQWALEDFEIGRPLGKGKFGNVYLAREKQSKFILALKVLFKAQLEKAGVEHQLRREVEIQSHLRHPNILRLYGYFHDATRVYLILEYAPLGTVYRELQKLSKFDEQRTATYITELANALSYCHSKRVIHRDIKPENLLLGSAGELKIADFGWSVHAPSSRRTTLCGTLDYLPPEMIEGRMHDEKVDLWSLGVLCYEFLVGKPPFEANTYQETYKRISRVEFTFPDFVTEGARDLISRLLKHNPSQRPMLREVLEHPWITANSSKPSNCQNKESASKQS

On to `CC(C)(CCc1nnn[nH]1)c1ccc(C(=O)Nc2cn3cc(C(F)(F)F)ccc3n2)cc1` [Cpd-1, 4-(2-methyl-4-(1H-tetrazol-5-yl)butan-2-yl)-N-(6-(trifluoromethyl)imidazo[1,2-a]pyridin-2-yl)benzamide], for which the GI50 with MDA-MB-468 cells came to 30500 nM; with COLO205 cells it was 27300 nM; in the assay on COLO320DM cells it was 43000 nM. Further, the Rc0.1 in [1], in assay [2], in [3], in [4], in [5] and in assay [6] was above 10 µM in each case. The “inhibition of Aurora kinase A in kinase panel” value on Aurora kinase A is “moderately inhibited”. The “inhibitory activity against CLK2 among the 28 critical oncology-related kinases” value against CLK2 is on record as “strongest inhibitory activity against CLK2”. The “effect on nuclear speckles” value in assay [7] is given as “induced enlargement of nuclear speckles”.

In the case of `CC(C)(C)c1ccc(C(=O)Nc2cn3cc(-c4cn[nH]c4)ccc3n2)cn1` [Cpd-2, 6-tert-butyl-N-(6-(1H-pyrazol-4-yl)imidazo[1,2-a]pyridin-2-yl)nicotinamide], the GI50 is 3000 nM with MDA-MB-468 cells, 1700 nM with COLO205 cells and 600 nM in the assay on COLO320DM cells. Besides, the Rc0.1 in assay [1] came out at 0.3 µM; in assay [2], 1.6 µM; in assay [3], 1.2 µM; in assay [4] it was 0.9 µM; in assay [5], 1.2 µM; in assay [6] it was 0.9 µM. For the same compound, the “inhibitory activity against CLK2 among the 28 critical oncology-related kinases” value at CLK2 is listed as “strongest inhibitory activity against CLK2”. In addition, the “Phospho-SRSF1 (SF2) level” value in assay [8] is recorded as “decreased”. For the same compound, the “phosphorylation levels of SRSF4 (SRp75)” value in assay [8] is recorded as “at lower concentrations than Cpd-1”. Also, the “effect on nuclear speckles” value in [7] is listed as “induced enlargement of nuclear speckles”.

Regarding `CC(C)(CO)c1ccc(C(=O)Nc2cn3cc(-c4cn[nH]c4)ccc3n2)cc1` [Cpd-3, 4-(1-hydroxy-2-methylpropan-2-yl)-N-(6-(1H-pyrazol-4-yl)imidazo[1,2-a]pyridin-2-yl)benzamide], the values for the GI50 in the assay with MDA-MB-468 cells, in the assay with COLO205 cells and in the assay with COLO320DM cells were 3400 nM, 2100 nM and 1500 nM, respectively. For the same compound, the Rc0.1 stood at 1.2 µM in assay [1]; 2.6 µM in [2]; 1.9 µM in assay [3]; 1.1 µM in [4]; 1.4 µM in assay [5]; 1.1 µM in [6]. Also, the “inhibition of Aurora kinase A in kinase panel” value against Aurora kinase A is recorded as “moderately inhibited”. Also, at CLK2, the “inhibitory activity against CLK2 among the 28 critical oncology-related kinases” value is “strongest inhibitory activity against CLK2”. Further, in [8], the “Phospho-SRSF1 (SF2) level” value is reported as “decreased”. Also, the “phosphorylation levels of SRSF4 (SRp75)” value in assay [8] is reported as “at lower concentrations than Cpd-1”. Also, in assay [7], the “effect on nuclear speckles” value is on record as “induced enlargement of nuclear speckles”.

(Values after paper PMC4291223, “Inhibitors of CLK Protein Kinases Suppress Cell Growth and Induce Apoptosis by Modulating Pre-mRNA Splicing” (PLoS ONE, 2015).)
